Consider ten molecules from ChEMBL document CHEMBL1151002, “Potent, selective, water-soluble benzodiazepine-based CCKB receptor antagonists that contain lipophilic carboxylate surrogates” (Bioorg Med Chem Lett, 1995).

Data set [1] is described as follows: Solubility at a pH 7.4. The format is physicochemical. As to conditions: buffer, read-out: S.
A short description of data set [2]: Ratio between CCKB and CCKA receptor binding affinity was measured by displacement of [125I]CCK from guinea pig cortical membranes and rat pancreatic tissues respectively. Background: Displacement assays read how much labelled ligand stays bound in the presence of the test substance.
Data set [3] in a line: Log D is the log of the ratio of concentrations in each phase obtained from partitioning between octanol and 100 mM KH2PO4 buffer at pH 7.4. The format is physicochemical. As to conditions: octanol/100 mM KH2PO4 buffer.
Data set [4] has as its system Rattus norvegicus. In words: Compound was evaluated for its penetration into blood-brain barrier measured by its level in rat brain after an intravenous dose of 3 mg/kg after 1 min. In kind it is functional, organism-based. Details: dose 3 mg/kg.
Data set [5] relates to Rattus norvegicus. Put plainly: Compound was evaluated for its penetration into blood-brain barrier measured by its level in rat brain after an intravenous dose of 3 mg/kg after 10 min. In kind it is functional, organism-based. Set-up: dose 3 mg/kg.
For data set [6], the species on record is Rattus norvegicus. In words: In vitro antagonistic activity for single-cell firing in a slice preparation of the rat ventromedial hyphalamic nucleus. The format is functional.
Data set [7] relates to Rattus norvegicus. Put plainly: Compound was evaluated for its penetration into blood-brain barrier measured by its level in rat brain after an intravenous dose of 3 mg/kg after 30 min. In kind it is functional, organism-based. Set-up: dose 3 mg/kg.
A short description of data set [8]: Oral bioavailability in rat. In kind it is ADME, organism-based. The note with it: in vivo, read-out: Bioavailabiility.
Data set [9] is described as follows: Compound was evaluated for its solubility at a pH 7.4. The format is ADME. The note with it: buffer.

Structures are written as SMILES. Converted amounts (≈) assume the structure as drawn. Where only a bound is given, the exact number is not on record here.

What is called logD is the decadic logarithm of the distribution of all forms, ionised or not, between an organic phase and buffer at a given pH. As for `Cc1cccc(NC(=O)N[C@@H]2N=C(C3CCCCC3)c3ccccc3N(C)C2=O)c1`, the solubility in data set [1] was less than 0.01 µg/mL. Besides, in data set [2], the Selectivity was 6500. Also, the logD in data set [3] was greater than 4.

Regarding `Cc1ccccc1S(=O)(=O)NC(=O)c1cccc(NC(=O)N[C@@H]2N=C(C3CCCCC3)c3ccccc3N(C)C2=O)c1`, the solubility in [1] came to 410 µg/mL (≈ 698 µM). For the same molecule, in data set [3], the logD stood at 2.

In the case of `CC(C)S(=O)(=O)NC(=O)c1cccc(NC(=O)N[C@@H]2N=C(C3CCCCC3)c3ccccc3N(C)C2=O)c1`, the solubility in data set [1] was 1160 µg/mL (≈ 2150 µM).

Consider `CN1C(=O)[C@H](NC(=O)Nc2cccc(C(=O)NS(=O)(=O)c3ccccc3)c2)N=C(C2CCCCC2)c2ccccc21`, for which the solubility in data set [1] is 370 µg/mL (≈ 645 µM). In addition, in data set [2], the Selectivity was greater than 8000.

On to `CC(=O)NS(=O)(=O)c1cccc(NC(=O)NC2N=C(C3CCCCC3)c3ccccc3N(C)C2=O)c1` (stereo not given), for which the solubility in data set [1] is 260 µg/mL (≈ 508 µM). Also, the Selectivity in data set [2] was 53. The logD in [3] was found to be 0.72.

As to `CN1C(=O)C(NC(=O)Nc2cccc(C(=O)NS(=O)(=O)c3ccccc3)c2)N=C(C2CCCCC2)c2ccccc21` (stereo not given), the Selectivity in [2] was determined as 19. In addition, the logD in data set [3] is 1.42.

Take `CC(C)S(=O)(=O)NC(=O)c1cccc(NC(=O)NC2N=C(C3CCCCC3)c3ccccc3N(C)C2=O)c1` (stereo not given): the solubility in data set [1] came to 740 µg/mL (≈ 1370 µM). Also, the logD in data set [3] came to 0.85.

The Kb is the affinity of an antagonist, worked out from how it opposes an agonist. A high value points to lower antagonist affinity. Take `CN1C(=O)C(NC(=O)Nc2cccc(S(=O)(=O)NC(=O)c3ccccc3)c2)N=C(C2CCCCC2)c2ccccc21` (stereo not given): the solubility in data set [1] is 50 µg/mL (≈ 87.2 µM). Besides, the Level with Rattus norvegicus [4] worked out at 222 ng/g; in the data set on Rattus norvegicus [5] it was 120 ng/g; with Rattus norvegicus [7], 72 ng/g. Moreover, in the data set filed under Rattus norvegicus [6], the antagonist equilibrium constant (Kb) came out at 1.2 nM. In addition, in data set [3], the logD is 1.78. Besides, the bioavailability in [8] is 14%.

As to `CN1C(=O)C(NC(=O)Nc2cccc(C(=O)NS(C)(=O)=O)c2)N=C(C2CCCCC2)c2ccccc21` (stereo not given), the Level in the data set on Rattus norvegicus [4] came to 836 ng/g; in the data set with Rattus norvegicus [5] it was 344 ng/g; with Rattus norvegicus [7], 91 ng/g. The logD in [3] worked out at 0.34. In [9], this molecule returned a solubility of 1300 µg/mL (≈ 2540 µM).

`CN1C(=O)C(NC(=O)Nc2cccc(C(=O)O)c2)N=C(C2CCCCC2)c2ccccc21` (stereo not given): the solubility in data set [1] is 1050 µg/mL (≈ 2420 µM). Moreover, the Selectivity in data set [2] was 2. Moreover, the logD in data set [3] was found to be 0.89.
